# *1 amine or outer side, *2 acyl side, *3 side chain or, on linkers, in order; H or OH if unused. Where a SMILES comes first, the peptide text is derived from it. Bridges are numbered along the chain shown (N, C = ends). [ ]: non-standard residue; d: D form. The star is where a group is joined. hTyr(3S-OH,4S-OH,3'-OSO3H) = N[C@H](C(=O)O)[C@H](O)[C@@H](O)c1ccc(O)c(OS(=O)(=O)O)c1; Orn(4R-OH,5R-OH) = O=C([C@H](C[C@@H](O)[C@@H](O)N[*:3])N[*:1])[*:2]; Pro(3S-OH,4S-Me) = C[C@H]1CN[C@H](C(=O)O)[C@H]1O; X1 = CCCCCOc1ccc(-c2cc(-c3ccc(C(=O)*)cc3)no2)cc1; Gln(3R-OH) = NC(=O)C[C@@H](O)[C@H](N)C(=O)O; Hyp = O=C(O)[C@@H]1C[C@@H](O)CN1
# What was measured:
# Candida albicans [1] = assay: Antifungal activity against Candida albicans FP633 collected from peak serum sample on day 8 from patient with acute myeloid leukemia at 1.1 mg/kg by disk diffusion method; assay type: functional
# Candida albicans [2] = assay: Antifungal activity against Candida albicans FP633 collected from trough serum sample on day 15 from patient with acute myeloid leukemia at 1.1 mg/kg by disk diffusion method; assay type: functional
# Candida albicans [3] = assay: Antifungal activity against Candida albicans FP633 collected from peak serum sample on day 15 from patient with acute myeloid leukemia at 1.1 mg/kg by disk diffusion method; assay type: functional
# Candida albicans [4] = assay: Antifungal activity against Candida albicans FP633 collected from trough serum sample on day 15 from patient with acute lymphoblastic leukemia at 1.2 mg/kg by disk diffusion method; assay type: functional
# Candida albicans [5] = assay: Antifungal activity against Candida albicans FP633 collected from peak serum sample on day 15 from patient with acute lymphoblastic leukemia at 1.2 mg/kg by disk diffusion method; assay type: functional
# Candida albicans [6] = assay: Antifungal activity against Candida albicans FP633 collected from peak serum sample on day 17 from patient with acute lymphoblastic leukemia at 1.2 mg/kg by disk diffusion method; assay type: functional
# Candida albicans [7] = assay: Antifungal activity against Candida albicans FP633 collected from peak serum sample on day 43 from patient with myelodysplastic syndrome at 1.4 mg/kg by disk diffusion method in presence of human serum; assay type: functional
# Candida albicans [8] = assay: Antifungal activity against Candida albicans FP633 collected from peak serum sample on day 43 patient with malignant lymphoma at 4.8 mg/kg by disk diffusion method in presence of human serum; assay type: functional
# Candida albicans [9] = assay: Antifungal activity against Candida albicans FP633 collected from peak serum sample on day 12 patient with malignant lymphoma at 2.6 mg/kg by disk diffusion method in presence of human serum; assay type: functional
# Candida albicans [10] = assay: Antifungal activity against Candida albicans FP633 collected from trough serum sample on day 8 from patient with acute myeloid leukemia at 1.1 mg/kg by disk diffusion method in presence of human serum; assay type: functional
# Candida albicans [11] = assay: Antifungal activity against Candida albicans FP633 collected from peak serum sample on day 8 from patient with acute myeloid leukemia at 1.1 mg/kg by disk diffusion method in presence of human serum; assay type: functional
# Candida albicans [12] = assay: Antifungal activity against Candida albicans FP633 collected from trough serum sample on day 15 from patient with acute myeloid leukemia at 1.1 mg/kg by disk diffusion method in presence of human serum; assay type: functional
# Candida albicans [13] = assay: Antifungal activity against Candida albicans FP633 collected from peak serum sample on day 15 from patient with acute myeloid leukemia at 1.1 mg/kg by disk diffusion method in presence of human serum; assay type: functional
# Candida albicans [14] = assay: Antifungal activity against Candida albicans FP633 collected from trough serum sample on day 15 from patient with acute lymphoblastic leukemia at 1.2 mg/kg by disk diffusion method in presence of human serum; assay type: functional
# Candida albicans [15] = assay: Antifungal activity against Candida albicans FP633 collected from peak serum sample on day 15 from patient with acute lymphoblastic leukemia at 1.2 mg/kg by disk diffusion method in presence of human serum; assay type: functional
# Candida albicans [16] = assay: Antifungal activity against Candida albicans FP633 collected from peak serum sample on day 17 from patient with acute lymphoblastic leukemia at 1.2 mg/kg by disk diffusion method in presence of human serum; assay type: functional
# [17] = Ratio of MIC for Candida albicans FP633 collected from peak serum sample on day 43 from patient with myelodysplastic syndrome at 3.9 mg/kg to Cmax for patient with myelodysplastic syndrome at 3.9 mg/kg; assay type: functional
# [18] = Ratio of MIC for Candida albicans FP633 collected from peak serum sample on day 43 from patient with malignant lymphoma at 4.8 mg/kg to Cmax for patient with malignant lymphoma at 4.8 mg/kg; assay type: functional
# [19] = Ratio of MIC for Candida albicans FP633 collected from peak serum sample on day 12 from patient with malignant lymphoma at 2.6 mg/kg to Cmax for patient with malignant lymphoma at 2.6 mg/kg; assay type: functional
# [20] = Ratio of MIC for Candida albicans FP633 collected from trough serum sample on day 8 from patient with acute myeloid leukemia at 1.1 mg/kg to Cmax for patient with acute myeloid leukemia at 1.1 mg/kg; assay type: functional
# [21] = Ratio of MIC for Candida albicans FP633 collected from peak serum sample on day 8 from patient with acute myeloid leukemia at 1.1 mg/kg to Cmax for patient with acute myeloid leukemia at 1.1 mg/kg; assay type: functional
# [22] = Ratio of MIC for Candida albicans FP633 collected from trough serum sample on day 15 from patient with acute myeloid leukemia at 1.1 mg/kg to Cmax for patient with acute myeloid leukemia at 1.1 mg/kg; assay type: functional
# [23] = Ratio of MIC for Candida albicans FP633 collected from peak serum sample on day 15 from patient with acute myeloid leukemia at 1.1 mg/kg to Cmax for patient with acute myeloid leukemia at 1.1 mg/kg; assay type: functional
# [24] = Ratio of MIC for Candida albicans FP633 collected from trough serum sample on day 15 from patient with acute lymphoblastic leukemia at 1.2 mg/kg to Cmax for patient with acute lymphoblastic leukemia at 1.2 mg/kg; assay type: functional
# [25] = Ratio of MIC for Candida albicans FP633 collected from peak serum sample on day 15 from patient with acute lymphoblastic leukemia at 1.2 mg/kg to Cmax for patient with acute lymphoblastic leukemia at 1.2 mg/kg; assay type: functional
# [26] = Ratio of MIC for Candida albicans FP633 collected from peak serum sample on day 17 from patient with acute lymphoblastic leukemia at 1.2 mg/kg to Cmax for patient with acute lymphoblastic leukemia at 1.2 mg/kg; assay type: functional
# [27] = Ratio of MIC for Candida albicans FP633 collected from peak serum sample on day 43 from patient with myelodysplastic syndrome at 3.9 mg/kg in presence of human serum to Cmax for patient with myelodysplastic syndrome at 3.9 mg/kg; assay type: functional
# [28] = Ratio of MIC for Candida albicans FP633 collected from peak serum sample on day 43 from patient with malignant lymphoma at 4.8 mg/kg in presence of human serum to Cmax for patient with malignant lymphoma at 4.8 mg/kg; assay type: functional
# [29] = Ratio of MIC for Candida albicans FP633 collected from peak serum sample on day 12 from patient with malignant lymphoma at 2.6 mg/kg in presence of human serum to Cmax for patient with malignant lymphoma at 2.6 mg/kg; assay type: functional
# [30] = Ratio of MIC for Candida albicans FP633 collected from trough serum sample on day 8 from patient with acute myeloid leukemia at 1.1 mg/kg in presence of human serum to Cmax for patient with acute myeloid leukemia at 1.1 mg/kg; assay type: functional
# [31] = Ratio of MIC for Candida albicans FP633 collected from peak serum sample on day 8 from patient with acute myeloid leukemia at 1.1 mg/kg in presence of human serum to Cmax for patient with acute myeloid leukemia at 1.1 mg/kg; assay type: functional
# [32] = Ratio of MIC for Candida albicans FP633 collected from trough serum sample on day 15 from patient with acute myeloid leukemia at 1.1 mg/kg in presence of human serum to Cmax for patient with acute myeloid leukemia at 1.1 mg/kg; assay type: functional
# [33] = Ratio of MIC for Candida albicans FP633 collected from peak serum sample on day 15 from patient with acute myeloid leukemia at 1.1 mg/kg in presence of human serum to Cmax for patient with acute myeloid leukemia at 1.1 mg/kg; assay type: functional
# [34] = Ratio of MIC for Candida albicans FP633 collected from trough serum sample on day 15 from patient with acute lymphoblastic leukemia at 1.2 mg/kg in presence of human serum to Cmax for patient with acute lymphoblastic leukemia at 1.2 mg/kg; assay type: functional
# [35] = Ratio of MIC for Candida albicans FP633 collected from peak serum sample on day 15 from patient with acute lymphoblastic leukemia at 1.2 mg/kg in presence of human serum to Cmax for patient with acute lymphoblastic leukemia at 1.2 mg/kg; assay type: functional
# [36] = Ratio of MIC for Candida albicans FP633 collected from peak serum sample on day 17 from patient with acute lymphoblastic leukemia at 1.2 mg/kg in presence of human serum to Cmax for patient with acute lymphoblastic leukemia at 1.2 mg/kg; assay type: functional
# Candida albicans [37] = assay: Antimicrobial activity against Candida albicans FP633 in presence of heat inactivated mouse serum; assay type: functional
# Serum = assay: Protein binding in human serum; assay type: ADME, cell-free
# [38] = Cmax in patient with malignant lymphoma infected with Candida albicans FP633 at 3.9 mg/kg administered once daily after 10 days by HPLC; assay type: ADME, organism-based; parameters: dose 3.9 mg/kg; conditions: human, in vivo
# [39] = Cmax in patient with malignant lymphoma infected with Candida albicans FP633 at 5.8 mg/kg administered once daily after 8 days by HPLC; assay type: ADME, organism-based; parameters: dose 5.8 mg/kg; conditions: human, in vivo
# [40] = Cmax in patient with myelodysplastic syndrome infected with Candida albicans FP633 at 1.4 mg/kg administered once daily after 45 days by HPLC; assay type: ADME, organism-based; parameters: dose 1.4 mg/kg; conditions: human, in vivo
# [41] = Cmax in patient with malignant lymphoma infected with Candida albicans FP633 at 4.8 mg/kg administered once daily after 43 days by HPLC; assay type: ADME, organism-based; parameters: dose 4.8 mg/kg; conditions: human, in vivo
# [42] = Cmax in patient with malignant lymphoma infected with Candida albicans FP633 at 2.6 mg/kg administered once daily after 12 days by HPLC; assay type: ADME, organism-based; parameters: dose 2.6 mg/kg; conditions: human, in vivo
# [43] = Cmax in patient with acute myeloid leukemia infected with Candida albicans FP633 at 1.1 mg/kg administered once daily after 8 days by HPLC; assay type: ADME, organism-based; parameters: dose 1.1 mg/kg; conditions: human, in vivo
# [44] = Cmax in patient with acute myeloid leukemia infected with Candida albicans FP633 at 1.1 mg/kg administered once daily after 15 days by HPLC; assay type: ADME, organism-based; parameters: dose 1.1 mg/kg; conditions: human, in vivo
# [45] = Cmax in patient with acute lymphoblastic leukemia infected with Candida albicans FP633 at 1.2 mg/kg administered once daily after 15 days by HPLC; assay type: ADME, organism-based; parameters: dose 1.2 mg/kg; conditions: human, in vivo
# [46] = Cmax in patient with acute lymphoblastic leukemia infected with Candida albicans FP633 at 1.2 mg/kg administered once daily after 17 days by HPLC; assay type: ADME, organism-based; parameters: dose 1.2 mg/kg; conditions: human, in vivo
# Candida albicans [47] = assay: Antifungal activity against Candida albicans FP633 collected from peak serum sample on day 43 from patient with myelodysplastic syndrome at 1.4 mg/kg by disk diffusion method; assay type: functional
# Candida albicans [48] = assay: Antifungal activity against Candida albicans FP633 collected from peak serum sample on day 43 patient with malignant lymphoma at 4.8 mg/kg by disk diffusion method; assay type: functional
# Candida albicans [49] = assay: Antifungal activity against Candida albicans FP633 collected from peak serum sample on day 12 patient with malignant lymphoma at 2.6 mg/kg by disk diffusion method; assay type: functional
# Candida albicans [50] = assay: Antifungal activity against Candida albicans FP633 collected from trough serum sample on day 8 from patient with acute myeloid leukemia at 1.1 mg/kg by disk diffusion method; assay type: functional
smiles,measurement,setting,value
"CCCCCOc1ccc(-c2cc(-c3ccc(C(=O)N[C@H]4C[C@@H](O)[C@@H](O)NC(=O)[C@@H]5[C@@H](O)[C@@H](C)CN5C(=O)[C@H]([C@H](O)CC(N)=O)NC(=O)[C@H]([C@H](O)[C@@H](O)c5ccc(O)c(OS(=O)(=O)O)c5)NC(=O)[C@@H]5C[C@@H](O)CN5C(=O)[C@H]([C@@H](C)O)NC4=O)cc3)no2)cc1 [MICAFUNGIN] (X1-[Orn(4R-OH,5R-OH)]T[Hyp][hTyr(3S-OH,4S-OH,3'-OSO3H)][Gln(3R-OH)][Pro(3S-OH,4S-Me)]; lactam 1-C)",Activity,Candida albicans [1],3.8 µg/mL
same,Activity,Candida albicans [2],1 µg/mL
same,Activity,Candida albicans [3],2.5 µg/mL
same,Activity,Candida albicans [4],0.9 µg/mL
same,Activity,Candida albicans [5],3.3 µg/mL
same,Activity,Candida albicans [6],2.9 µg/mL
same,Activity,Candida albicans [7],4.2 µg/mL
same,Activity,Candida albicans [8],34.8 µg/mL
same,Activity,Candida albicans [9],22.1 µg/mL
same,Activity,Candida albicans [10],2.1 µg/mL
same,Activity,Candida albicans [11],8.1 µg/mL
same,Activity,Candida albicans [12],1.7 µg/mL
same,Activity,Candida albicans [13],5.2 µg/mL
same,Activity,Candida albicans [14],1.6 µg/mL
same,Activity,Candida albicans [15],7 µg/mL
same,Activity,Candida albicans [16],5.9 µg/mL
same,Ratio,[17],38
same,Ratio,[18],38
same,Ratio,[19],37
same,Ratio,[20],42
same,Ratio,[21],42
same,Ratio,[22],32
same,Ratio,[23],45
same,Ratio,[24],40
same,Ratio,[25],52
same,Ratio,[26],44
same,Ratio,[27],63
same,Ratio,[28],94
same,Ratio,[29],135
same,Ratio,[30],78
same,Ratio,[31],96
same,Ratio,[32],58
same,Ratio,[33],92
same,Ratio,[34],71
same,Ratio,[35],109
same,Ratio,[36],91
same,MIC,Candida albicans [37],1 µg/mL
same,PB,Serum,99.8%
same,Cmax,[38],34200 ng/mL
same,Cmax,[39],33600 ng/mL
same,Cmax,[40],6700 ng/mL
same,Cmax,[41],37100 ng/mL
same,Cmax,[42],16400 ng/mL
same,Cmax,[43],8400 ng/mL
same,Cmax,[44],5600 ng/mL
same,Cmax,[45],6400 ng/mL
same,Cmax,[46],6500 ng/mL
same,Activity,Candida albicans [47],2.5 µg/mL
same,Activity,Candida albicans [48],14.1 µg/mL
same,Activity,Candida albicans [49],6 µg/mL
same,Activity,Candida albicans [50],1.1 µg/mL
